PKC activity data for one substance are collected here from patent publication US20050020662A1, “Inhibition of PKC to treat permability failure” (Joslin Diabetes Center, Inc., a Massachusetts corporation, priority 1999, published 2005).

This assay deals with PKC. Briefly: PKC activity of primary human mesothelial cells. In kind it is cell-based. The settings on record: human mesothelial cells exposed to vitamin E, low or high (150 mM) glucose, presence or absence of PMA (FIG. 2). On the procedure:
The PKC activity was determined in the presence or absence or PMA, an activator of PKC. […] The mesothelial cells were exposed to low or high (150 mM) levels of glucose in the presence or absence of PMA, an activator of PKC, and the presence or absence of vitamin E, a PKC inhibitor. […] The PKC activity was determined in the presence or absence or PMA, an activator of PKC. […] These concentrations of glucose are standard for dialysis. […] It has been reported that activation of these pathways increases fibrosis. […] Therefore, inhibition of PKC can decrease fibrosis and reduce or prevent permeability failure of the peritoneal membrane.

With vitamin E, the PKC activity entry is listed as “decrease of PKC activity”.
